Experiments:
[1] = Preliminary experiments on tolerable treatment dose; type: in vivo; conditions: mice
Protocol: (§1) The in vivo antitumor activity of the glucose-triptolide conjugate G4 was determined using an established metastatic prostate cancer model (Reference 1). In this model, the luciferase-expressing prostate cancer line PC3/ML was injected into NOD/SCID/IL2rγ^null (NSG) mice through the tail vein. The metastasis of the injected prostate cancer cells into liver, kidney, lung and bone can be monitored in live animals by bioluminescent imaging (BLI). It was shown that this is a reliable model with reproducible liver metastasis and all animals succumb by Week 7 after injection of cells (or Week 4 after initiation of treatments). […] Three weeks after cell injection, each compound was given once daily by IP at those doses for a total of 4 weeks. The surviving animals were continuously monitored upon termination of compound administration.

[2] = test system: luciferase-expressing prostate cancer line PC3/ML; assay: Metastatic prostate cancer model, bioluminescent imaging; type: in vivo, NOD/SCID/IL2rγ^null (NSG) mice; conditions: triptolide 0.2 mg/kg, G4 1 mg/kg
Protocol: FIG. 3. Effects of triptolide and glucose-triptolide conjugate G4 in a metastatic mouse prostate cancer model. The injected prostate cancer cells expressed luciferase, which was detected by imaging of live animals.
as §1

## CC(C)[C@]12O[C@H]1[C@@H]1O[C@]13[C@]1(O[C@H]1C[C@H]1C4=C(CC[C@@]13C)C(=O)OC4)[C@@H]2O [triptolide]
[1]
  tolerable treatment dose: 0.2 mg/kg
[2]; after 4 weeks of once daily IP, till end of experiment
  tumor after termination of compound administration: tumors immediately returned
[2]; once daily IP for 4 weeks, BLI
  tumor cells at the end of Week 4 of treatment: undetectable tumor cells

From patent US10695319B2, “Glucose conjugates of triptolide, analogs and uses thereof” (The Johns Hopkins University, priority 2016, dated 2020)
